Data from PubChem BioAssay (NCI).
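Exposure lasted 48 hours, with cells grown in 96-well plates and compounds tested at five concentrations. TGI marks complete inhibition of growth.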

Columns and labels:
Assay in all cases: DTP human tumour cell line panel, 48 h
[1] = system: 786-0 renal
[2] = system: A498 renal
[3] = system: A549 NSCLC
[4] = system: ACHN renal
[5] = system: BT-549 breast
[6] = system: CAKI-1 renal
[7] = system: CCRF-CEM leukemia
[8] = system: COLO 205 colon
[9] = system: DU-145 prostate
[10] = system: EKVX NSCLC
[11] = system: HCC-2998 colon
[12] = system: HCT-116 colon
[13] = system: HCT-15 colon
[14] = system: HL-60(TB) leukemia
[15] = system: HOP-62 NSCLC
[16] = system: HOP-92 NSCLC
[17] = system: HS 578T breast
[18] = system: HT29 colon
[19] = system: IGROV1 ovarian
[20] = system: K-562 leukemia
[21] = system: KM12 colon
[22] = system: LOX IMVI melanoma
[23] = system: M14 melanoma
[24] = system: MALME-3M melanoma
[25] = system: MCF7 breast
[26] = system: MDA-MB-231 breast
[27] = system: MDA-MB-435
[28] = system: MDA-N
[29] = system: MOLT-4 leukemia
[30] = system: NCI-H226 lung
[31] = system: NCI-H23 lung
[32] = system: NCI-H460 lung
[33] = system: NCI-H522 lung
[34] = system: NCI/ADR-RES ovarian
[35] = system: OVCAR-3 ovarian
[36] = system: OVCAR-4 ovarian
[37] = system: OVCAR-5 ovarian
[38] = system: OVCAR-8 ovarian
[39] = system: PC-3 prostate
[40] = system: RPMI-8226 leukemia
[41] = system: SF-295 CNS
[42] = system: SF-539 CNS
[43] = system: SK-MEL-2 melanoma
[44] = system: SK-MEL-28 melanoma
[45] = system: SK-MEL-5 melanoma
[46] = system: SK-OV-3 ovarian
[47] = system: SN12C renal
[48] = system: SNB-19 CNS
[49] = system: SNB-75 CNS
[50] = system: SR leukemia
[51] = system: SW-620 colon
[52] = system: T-47D breast
[53] = system: TK-10 renal
[54] = system: U251 CNS
[55] = system: UACC-257 melanoma
[56] = system: UACC-62 melanoma
[57] = system: UO-31 renal
[58] = system: RXF 393 renal
[59] = system: SF-268 CNS

O=S1OC[C@H](CCCl)O1 (stereo not given in full)
TGI [1]: > 100 µM
TGI [2]: > 100 µM
TGI [3]: > 100 µM
TGI [4]: > 100 µM
TGI [5]: > 100 µM
TGI [6]: > 100 µM
TGI [7]: > 100 µM
TGI [8]: > 100 µM
TGI [9]: > 100 µM
TGI [10]: > 100 µM
TGI [11]: > 100 µM
TGI [12]: > 100 µM
TGI [13]: > 100 µM
TGI [14]: > 100 µM
TGI [15]: > 100 µM
TGI [16]: > 100 µM
TGI [17]: > 100 µM
TGI [18]: > 100 µM
TGI [19]: > 100 µM
TGI [20]: > 100 µM
TGI [21]: > 100 µM
TGI [22]: > 100 µM
TGI [23]: > 100 µM
TGI [24]: > 100 µM
TGI [25]: > 100 µM
TGI [26]: > 100 µM
TGI [27]: > 100 µM
TGI [28]: > 100 µM
TGI [29]: > 100 µM
TGI [30]: > 100 µM
TGI [31]: > 100 µM
TGI [32]: > 100 µM
TGI [33]: > 100 µM
TGI [34]: > 100 µM
TGI [35]: > 100 µM
TGI [36]: > 100 µM
TGI [37]: > 100 µM
TGI [38]: > 100 µM
TGI [39]: > 100 µM
TGI [40]: > 100 µM
TGI [41]: > 100 µM
TGI [42]: > 100 µM
TGI [43]: > 100 µM
TGI [44]: > 100 µM
TGI [45]: > 100 µM
TGI [46]: > 100 µM
TGI [47]: > 100 µM
TGI [48]: > 100 µM
TGI [49]: > 100 µM
TGI [50]: > 100 µM
TGI [51]: > 100 µM
TGI [52]: > 100 µM
TGI [53]: > 100 µM
TGI [54]: > 100 µM
TGI [55]: > 100 µM
TGI [56]: > 100 µM
TGI [57]: > 100 µM

Cc1c(C(=O)O)n2c(C)nnc2c2ccccc12
TGI [1]: > 100 µM
TGI [2]: > 100 µM
TGI [3]: > 100 µM
TGI [4]: > 100 µM
TGI [5]: > 100 µM
TGI [6]: > 100 µM
TGI [7]: > 100 µM
TGI [8]: > 100 µM
TGI [9]: > 100 µM
TGI [10]: > 100 µM
TGI [11]: > 100 µM
TGI [12]: > 100 µM
TGI [13]: > 100 µM
TGI [15]: > 100 µM
TGI [16]: > 100 µM
TGI [17]: > 100 µM
TGI [18]: > 100 µM
TGI [19]: > 100 µM
TGI [20]: > 100 µM
TGI [21]: > 100 µM
TGI [22]: > 100 µM
TGI [23]: > 100 µM
TGI [25]: > 100 µM
TGI [26]: > 100 µM
TGI [27]: > 100 µM
TGI [28]: > 100 µM
TGI [29]: > 100 µM
TGI [30]: > 100 µM
TGI [31]: > 100 µM
TGI [32]: > 100 µM
TGI [33]: > 100 µM
TGI [34]: > 100 µM
TGI [35]: > 100 µM
TGI [36]: > 100 µM
TGI [37]: > 100 µM
TGI [38]: > 100 µM
TGI [39]: > 100 µM
TGI [58]: > 100 µM
TGI [59]: > 100 µM
TGI [41]: > 100 µM
TGI [42]: > 100 µM
TGI [43]: > 100 µM
TGI [44]: > 100 µM
TGI [45]: > 100 µM
TGI [46]: > 100 µM
TGI [47]: > 100 µM
TGI [49]: > 100 µM
TGI [50]: > 100 µM
TGI [51]: > 100 µM
TGI [52]: > 100 µM
TGI [53]: > 100 µM
TGI [54]: > 100 µM
TGI [55]: > 100 µM
TGI [56]: > 100 µM
TGI [57]: > 100 µM

CCN=c1nc2sc3c(c2c(NC(=S)NCC)s1)CCN(N1CCc2c(sc4nc(=NCC)sc(NC(=S)NCC)c24)C1)C3
TGI [1]: > 100 µM
TGI [2]: > 100 µM
TGI [3]: > 100 µM
TGI [4]: > 100 µM
TGI [5]: > 100 µM
TGI [6]: > 100 µM
TGI [7]: > 100 µM
TGI [8]: > 100 µM
TGI [9]: > 100 µM
TGI [10]: > 100 µM
TGI [11]: > 100 µM
TGI [12]: 52.3 µM
TGI [13]: > 100 µM
TGI [14]: > 100 µM
TGI [15]: > 100 µM
TGI [16]: 84.7 µM
TGI [17]: > 100 µM
TGI [18]: > 100 µM
TGI [19]: > 100 µM
TGI [20]: > 100 µM
TGI [21]: > 100 µM
TGI [22]: > 100 µM
TGI [23]: > 100 µM
TGI [24]: > 100 µM
TGI [25]: > 100 µM
TGI [26]: 82.6 µM
TGI [27]: > 100 µM
TGI [28]: > 100 µM
TGI [29]: > 100 µM
TGI [30]: > 100 µM
TGI [31]: > 100 µM
TGI [32]: > 100 µM
TGI [33]: > 100 µM
TGI [34]: > 100 µM
TGI [35]: > 100 µM
TGI [36]: > 100 µM
TGI [37]: > 100 µM
TGI [38]: > 100 µM
TGI [39]: > 100 µM
TGI [58]: 53.2 µM
TGI [59]: > 100 µM
TGI [41]: > 100 µM
TGI [42]: 39.5 µM
TGI [43]: > 100 µM
TGI [44]: > 100 µM
TGI [45]: > 100 µM
TGI [46]: > 100 µM
TGI [47]: > 100 µM
TGI [48]: > 100 µM
TGI [49]: > 100 µM
TGI [50]: > 100 µM
TGI [51]: > 100 µM
TGI [52]: > 100 µM
TGI [53]: > 100 µM
TGI [54]: > 100 µM
TGI [55]: > 100 µM
TGI [56]: > 100 µM
TGI [57]: > 100 µM
